No end group written: not given here.
Assays:
[1] = test system: primary pig anterior pituitary cells; experiment: GH release from primary pig anterior pituitary culture challenged with conditioned media; format: cell-based; conditions: 24 h stimulation at 37 C; media from 1 million primary pig myoblasts or media mixed with 10 ng synthetic peptide
Description: Primary pig myoblasts culture was obtained as described (Doumit & Merkel, 1992, Tissue & Cell 24:253-262). The cells were plated at a density of 1 million cells/100 mm plate and maintained in growth media for 2-3 days. The cells were passed for 2 times prior to transfection. The transfection and differentiation was made in the same conditions as for the primary chicken myoblast culture. The media and cells were harvested for analysis 48, 72 and 96 h postdifferentiation in both cases. The efficiency of transfection estimated by β-galactosidase histochemistry on control plates was 10%.
One day before harvesting, cells were washed twice in HBSS and changed in MEM, 0.1% BSA. The collected media was conditioned by adding ¼ volumes of 1% triflouroacetic acid (TFA) and 0.001% phenylmethylsulfonylflouride (PMSF), frozen at −80° C., lyophilized, purified on C-18 Sep-Columns (Peninsula Laboratories, CA, USA), relyophilized and used in RIA or resuspended in media conditioned for primary pig anterior pituitary culture. […]
B. In vitro activity of pSK-GHRH. Since anterior pituitary is the natural target of GHRH stimulation, we determined the biological activity of secreted GHRH from the media of pSK-GHRH transfected primary pig myoblasts (FIG. 8). […]

[2] = cited from earlier work
GH release = conditions: synthetic molecules, Ling et al 1984; cited from earlier work

hGHRH (1-44)NH2: synthetic amidated human growth hormone releasing hormone (1-44) (YADAIFTNSYRKVLGQLSARKLLQDIMSRQQGESNQERGARARL-NH2; UniProt P01286 32-75, looked up)
GH release [1]: 115 ± 3.2 ng/mL

hGHRH(1-40)OH: Human 1-40 OH growth hormone releasing hormone (YADAIFTNSYRKVLGQLSARKLLQDIMSRQQGESNQERGA-OH)
potency in vivo relative to hGHRH(1-44)NH2 [2]: same potency in vivo as hGHRH(1-44)NH2

hGHRH(1-44)OH: non-amidated human GHRH (1-44), Tyr1 to Leu44; the molecule expressed by pSK-GHRH (YADAIFTNSYRKVLGQLSARKLLQDIMSRQQGESNQERGARARL-OH; UniProt P01286 32-75, looked up)
less effective in releasing GH than the (1-44) amidated form (GH release): 30%
